In the test the target is T1, recombinant human GluN1/GluN2A receptor (Homo sapiens, UniProt Q05586+Q12879).
T1 construct: expressed in transfected cells; host or cells: HEK293, tetracycline-inducible expression
Nature of the test: Whole-cell patch clamp of mammalian cells (Syncropatch 384i), NMDA modulation. The conditions noted are these: HEK293 cells, human GluN1/GluN2A, glutamate 1 μM / glycine 100 μM, -80 mV, peak amplitude increase; for EC50: read-out: EC50. Type of test: cell-based. An outline of the steps: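 Modulation read as fold rise in peak current, (Icomp/Icontrol)−1, from 8 concentrations with ≥2 wells each, four-parameter fit. Compound pre-incubated 120 s then co-applied with 1 μM glutamate plus 100 μM glycine; tetracycline-inducible HEK293 GluN1/GluN2A cells clamped at −80 mV.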

By Emax is commonly meant the size of the effect at its maximum, as opposed to the concentration needed. In general, EC50 refers to the concentration giving half of the maximal effect.

Read-outs that look alike come from different tables or passages of the source. Some results are limits rather than exact numbers.

T1 sequence (Q12879 23-1464, other chains not shown): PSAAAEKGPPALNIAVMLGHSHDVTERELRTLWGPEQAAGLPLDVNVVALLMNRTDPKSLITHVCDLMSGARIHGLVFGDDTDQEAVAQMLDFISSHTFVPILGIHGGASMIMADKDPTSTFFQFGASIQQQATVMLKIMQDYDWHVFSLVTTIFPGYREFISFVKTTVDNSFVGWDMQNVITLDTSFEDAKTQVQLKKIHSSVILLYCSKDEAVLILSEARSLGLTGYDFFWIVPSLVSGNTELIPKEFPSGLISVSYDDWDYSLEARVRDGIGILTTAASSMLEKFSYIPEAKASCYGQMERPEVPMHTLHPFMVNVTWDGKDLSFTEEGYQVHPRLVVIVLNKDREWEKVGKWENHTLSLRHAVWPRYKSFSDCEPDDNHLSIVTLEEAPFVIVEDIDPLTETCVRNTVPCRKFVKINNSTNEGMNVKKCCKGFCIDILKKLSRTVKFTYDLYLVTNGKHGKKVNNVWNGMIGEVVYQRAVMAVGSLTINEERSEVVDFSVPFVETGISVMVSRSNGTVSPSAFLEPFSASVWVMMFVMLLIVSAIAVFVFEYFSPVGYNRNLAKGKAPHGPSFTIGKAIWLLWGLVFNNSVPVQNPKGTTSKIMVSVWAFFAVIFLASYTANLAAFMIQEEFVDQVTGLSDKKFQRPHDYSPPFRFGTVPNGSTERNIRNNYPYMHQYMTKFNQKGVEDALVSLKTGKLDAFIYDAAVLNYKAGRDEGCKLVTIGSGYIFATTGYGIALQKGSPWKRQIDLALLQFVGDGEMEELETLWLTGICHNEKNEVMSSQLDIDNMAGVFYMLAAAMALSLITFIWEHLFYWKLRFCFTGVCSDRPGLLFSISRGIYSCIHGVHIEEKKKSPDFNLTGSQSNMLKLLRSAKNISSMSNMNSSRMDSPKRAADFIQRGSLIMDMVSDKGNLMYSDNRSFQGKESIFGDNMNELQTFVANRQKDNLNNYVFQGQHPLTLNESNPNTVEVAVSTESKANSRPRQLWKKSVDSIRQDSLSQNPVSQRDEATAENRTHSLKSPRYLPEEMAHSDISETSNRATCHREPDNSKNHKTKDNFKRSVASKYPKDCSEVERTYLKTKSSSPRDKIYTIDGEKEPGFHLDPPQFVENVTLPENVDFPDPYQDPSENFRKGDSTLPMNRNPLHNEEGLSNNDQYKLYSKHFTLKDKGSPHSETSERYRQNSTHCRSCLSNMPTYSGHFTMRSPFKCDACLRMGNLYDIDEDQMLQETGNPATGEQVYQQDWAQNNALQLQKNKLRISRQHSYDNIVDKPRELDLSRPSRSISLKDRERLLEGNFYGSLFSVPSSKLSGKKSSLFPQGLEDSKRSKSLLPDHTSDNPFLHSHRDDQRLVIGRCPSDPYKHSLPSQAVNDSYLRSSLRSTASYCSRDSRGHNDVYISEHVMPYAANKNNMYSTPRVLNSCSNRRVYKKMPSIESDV

`CC[C@]1(O)CCC[C@@]2(C)C(=CC[C@H]3[C@@H]4CC[C@H]([C@H](C)CC[C@](C)(O)C(F)(F)F)[C@@]4(C)CC[C@@H]32)C1` [Compound D-17, (1R,3aS,3bS,7S,10aR,10bS,12aR)-7-ethyl-10a,12a-dimethyl-1-((2R,5S)-6,6,6-trifluoro-5-hydroxy-5-methylhexan-2-yl)-1,2,3,3a,3b,4,6,7,8,9,10,10a,10b,11,12,12a-hexadecahydrocyclohepta[a]cyclopenta[f]naphthalen-7-ol]: where the note is “Table D-2”, the Emax was 100 to 200% and the EC50 lay in the range of 100 to 500 nM.
Take `CC[C@]1(O)CC[C@]2(C)C3=CC[C@]4(C)[C@@H]([C@H](C)CCCC(C)(C)O)CC[C@H]4[C@@H]3CC[C@H]2C1` [Compound E-1, (3S,5S,8S,10S,13R,14S,17R)-3-ethyl-17-((R)-6-hydroxy-6-methylheptan-2-yl)-10,13-dimethyl-2,3,4,5,6,7,8,10,12,13,14,15,16,17-tetradecahydro-1H-cyclopenta[a]phenanthren-3-ol]: where the note is “Table E-2”, the Emax was under 100% and the half-maximal effective concentration (EC50) lay within 1 to 100 nM.
For `CC[C@]1(O)CC[C@]2(C)C3=CC[C@]4(C)[C@@H]([C@H](C)CC[C@@](C)(O)C(F)(F)F)CC[C@H]4[C@@H]3CC[C@H]2C1` [Compound E-2, (3S,5S,8S,10S,13R,14S,17R)-3-ethyl-10,13-dimethyl-17-((2R,5R)-6,6,6-trifluoro-5-hydroxy-5-methylhexan-2-yl)-2,3,4,5,6,7,8,10,12,13,14,15,16,17-tetradecahydro-1H-cyclopenta[a]phenanthren-3-ol], for the setting “Table E-2”, the maximal response (Emax) was over 200% and the 50% effective concentration (EC50) lay within 100 to 500 nM.
For the compound `CC[C@]1(O)CC[C@]2(C)C3=CC[C@]4(C)[C@@H]([C@H](C)CC[C@](C)(O)C(F)(F)F)CC[C@H]4[C@@H]3CC[C@H]2C1` [Compound E-3, (3S,5S,8S,10S,13R,14S,17R)-3-ethyl-10,13-dimethyl-17-((2R,5S)-6,6,6-trifluoro-5-hydroxy-5-methylhexan-2-yl)-2,3,4,5,6,7,8,10,12,13,14,15,16,17-tetradecahydro-1H-cyclopenta[a]phenanthren-3-ol], for the setting “Table E-2”, the maximal effect (Emax) is over 200% and the EC50 was in the range of 1 to 100 nM.
Consider `CC[C@]1(O)CC[C@]2(C)C3=CC[C@]4(C)[C@@H]([C@H](C)CC[C@@H](O)C(C)C)CC[C@H]4[C@@H]3CC[C@H]2C1` [Compound E-4, (3S,5S,8S,10S,13R,14S,17R)-3-ethyl-17-((2R,5R)-5-hydroxy-6-methylheptan-2-yl)-10,13-dimethyl-2,3,4,5,6,7,8,10,12,13,14,15,16,17-tetradecahydro-1H-cyclopenta[a]phenanthren-3-ol], for which, where the note is “Table E-2”, the maximum response (Emax) is over 200% and the half-maximal effective concentration (EC50) fell in the range of 1 to 100 nM.
On to `CC[C@]1(O)CC[C@]2(C)C3=CC[C@]4(C)[C@@H]([C@H](C)CCC(C)(C)O)CC[C@H]4[C@@H]3CC[C@H]2C1` [Compound E-5, (3S,5S,8S,10S,13R,14S,17R)-3-ethyl-17-((R)-5-hydroxy-5-methylhexan-2-yl)-10,13-dimethyl-2,3,4,5,6,7,8,10,12,13,14,15,16,17-tetradecahydro-1H-cyclopenta[a]phenanthren-3-ol], for which, for the setting “Table E-2”, the maximal effect (Emax) was 100 to 200% and the EC50 lay in the range of 1 to 100 nM.
On to `CC[C@]1(O)CC[C@]2(C)C3=CC[C@]4(C)[C@@H]([C@H](C)CCC5(O)CCCC5)CC[C@H]4[C@@H]3CC[C@H]2C1` [Compound E-6, (3S,5S,8S,10S,13R,14S,17R)-3-ethyl-17-((R)-4-(1-hydroxycyclopentyl)butan-2-yl)-10,13-dimethyl-2,3,4,5,6,7,8,10,12,13,14,15,16,17-tetradecahydro-1H-cyclopenta[a]phenanthren-3-ol], for which, where the note is “Table E-2”, the Emax was over 200% and the concentration giving a half-maximal response (EC50) was in the range of 1 to 100 nM.
On to `CC[C@]1(O)CC[C@]2(C)C3=CC[C@]4(C)[C@@H]([C@H](C)CCC5(O)CC5)CC[C@H]4[C@@H]3CC[C@H]2C1` [Compound E-7, (3S,5S,8S,10S,13R,14S,17R)-3-ethyl-17-((R)-4-(1-hydroxycyclopropyl)butan-2-yl)-10,13-dimethyl-2,3,4,5,6,7,8,10,12,13,14,15,16,17-tetradecahydro-1H-cyclopenta[a]phenanthren-3-ol], for which, under “Table E-2”, the maximum response (Emax) was over 200% and the half-maximal effective concentration (EC50) lay within 100 to 500 nM.
`CC[C@]1(O)CC[C@]2(C)C3=CC[C@]4(C)[C@@H]([C@H](C)CC[C@@]5(O)CCOC5)CC[C@H]4[C@@H]3CC[C@H]2C1` [Compound E-8, (R)-3-((R)-3-((3S,5S,8S,10S,13R,14S,17R)-3-ethyl-3-hydroxy-10,13-dimethyl-2,3,4,5,6,7,8,10,12,13,14,15,16,17-tetradecahydro-1H-cyclopenta[a]phenanthren-17-yl)butyl)tetrahydrofuran-3-ol]: where the note is “Table E-2”, the Emax was over 200% and the EC50 was 1 to 100 nM.
In the same order, the values of `CC[C@]1(O)CC[C@]2(C)C3=CC[C@]4(C)[C@@H]([C@H](C)CC[C@]5(O)CCOC5)CC[C@H]4[C@@H]3CC[C@H]2C1` [Compound E-9, (S)-3-((R)-3-((3S,5S,8S,10S,13R,14S,17R)-3-ethyl-3-hydroxy-10,13-dimethyl-2,3,4,5,6,7,8,10,12,13,14,15,16,17-tetradecahydro-1H-cyclopenta[a]phenanthren-17-yl)butyl)tetrahydrofuran-3-ol] are over 200% and 1 to 100 nM.
In the same order, the values of `C[C@H](CCCO)[C@H]1CC[C@H]2[C@@H]3CC[C@H]4C[C@@](C)(O)CC[C@]4(C)C3=CC[C@]12C` [Compound E-10, (3S,5S,8S,10S,13R,14S,17R)-17-((R)-5-hydroxypentan-2-yl)-3,10,13-trimethyl-2,3,4,5,6,7,8,10,12,13,14,15,16,17-tetradecahydro-1H-cyclopenta[a]phenanthren-3-ol] are under 100% and 1 to 100 nM.
The corresponding values for `CC(C)[C@H](O)CC[C@@H](C)[C@H]1CC[C@H]2[C@@H]3CC[C@H]4C[C@@](C)(O)CC[C@]4(C)C3=CC[C@]12C` [Compound E-11, (3S,5S,8S,10S,13R,14S,17R)-17-((2R,5R)-5-hydroxy-6-methylheptan-2-yl)-3,10,13-trimethyl-2,3,4,5,6,7,8,10,12,13,14,15,16,17-tetradecahydro-1H-cyclopenta[a]phenanthren-3-ol] are 100 to 200% and 1 to 100 nM.
With `CC(C)[C@@H](O)CC[C@@H](C)[C@H]1CC[C@H]2[C@@H]3CC[C@H]4C[C@@](C)(O)CC[C@]4(C)C3=CC[C@]12C` [Compound E-12, (3S,5S,8S,10S,13R,14S,17R)-17-((2R,5S)-5-hydroxy-6-methylheptan-2-yl)-3,10,13-trimethyl-2,3,4,5,6,7,8,10,12,13,14,15,16,17-tetradecahydro-1H-cyclopenta[a]phenanthren-3-ol], for the setting “Table E-2”, the maximum response (Emax) is 100 to 200% and the EC50 is 1 to 100 nM.
With `C[C@H](CC[C@](C)(O)C(F)(F)F)[C@H]1CC[C@H]2[C@@H]3CC[C@H]4C[C@@](C)(O)CC[C@]4(C)C3=CC[C@]12C` [Compound E-13, (3S,5S,8S,10S,13R,14S,17R)-3,10,13-trimethyl-17-((2R,5S)-6,6,6-trifluoro-5-hydroxy-5-methylhexan-2-yl)-2,3,4,5,6,7,8,10,12,13,14,15,16,17-tetradecahydro-1H-cyclopenta[a]phenanthren-3-ol], the EC50 (Table E-2) lay within 1 to 100 nM.
On the same count and under the same terms, next, `C[C@H](CC[C@@](C)(O)C(F)(F)F)[C@H]1CC[C@H]2[C@@H]3CC[C@H]4C[C@@](C)(O)CC[C@]4(C)C3=CC[C@]12C` [Compound E-14, (3S,5S,8S,10S,13R,14S,17R)-3,10,13-trimethyl-17-((2R,5R)-6,6,6-trifluoro-5-hydroxy-5-methylhexan-2-yl)-2,3,4,5,6,7,8,10,12,13,14,15,16,17-tetradecahydro-1H-cyclopenta[a]phenanthren-3-ol]: 100 to 500 nM; `C[C@H](CCC1(O)CC1)[C@H]1CC[C@H]2[C@@H]3CC[C@H]4C[C@@](C)(O)CC[C@]4(C)C3=CC[C@]12C` [Compound E-15, (3S,5S,8S,10S,13R,14S,17R)-17-((R)-4-(1-hydroxycyclopropyl)butan-2-yl)-3,10,13-trimethyl-2,3,4,5,6,7,8,10,12,13,14,15,16,17-tetradecahydro-1H-cyclopenta[a]phenanthren-3-ol]: 1 to 100 nM; `CCC(O)(CC)CC[C@@H](C)[C@H]1CC[C@H]2[C@@H]3CC[C@H]4C[C@@](C)(O)CC[C@]4(C)C3=CC[C@]12C` [Compound E-16, (3S,5S,8S,10S,13R,14S,17R)-17-((R)-5-ethyl-5-hydroxyheptan-2-yl)-3,10,13-trimethyl-2,3,4,5,6,7,8,10,12,13,14,15,16,17-tetradecahydro-1H-cyclopenta[a]phenanthren-3-ol]: 500 to 1000 nM.
With `CC[C@]12CC[C@H]3[C@@H](CC=C4C[C@@](C)(O)CC[C@@]43C)[C@@H]1CC[C@@H]2[C@H](C)CC[C@H](O)C(C)C` [Compound F-3, (3S,8S,9S,10R,13R,14S,17R)-13-ethyl-17-((2R,5S)-5-hydroxy-6-methylheptan-2-yl)-3,10-dimethyl-2,3,4,7,8,9,10,11,12,13,14,15,16,17-tetradecahydro-1H-cyclopenta[a]phenanthren-3-ol], the concentration for a half-maximal effect (EC50) (Table F-2) fell in the range of 100 to 500 nM.

The record behind these values is patent publication US20240368214A1, “POSITIVE NMDA-MODULATING COMPOUNDS AND METHODS OF USE THEREOF” (SAGE THERAPEUTICS, INC., priority 2021, published 2024).
